Measured values reported in ChEMBL document CHEMBL1201862, “PubChem BioAssay data set” (2004).
Blank lines part the entries; values can stand above or below the molecule they belong to. Calls of active or inactive are those of the source.

Key:
Type in all cases: functional
[1] = biological target: RNA-editing ligase 1, mitochondrial (Trypanosoma brucei brucei, UniProt P86926); assay: inhibition of trypanosome RNA editing ligase – biochemical, fluorescence, Trypanosoma brucei, dose response (AID 1117295)
[2] = blockade of melanocortin 4 receptor signaling – cell-based, plate reader, cherry pick, counter-screen for LGR2 antagonist project, dose response (AID 743444);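 note: transfected HEK 293 cells stimulated with alpha-MSH peptide; potency of inhibitors of the alpha-MSH evoked signal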
[3] = biological target: T1, Apoptotic protease-activating factor 1 (Homo sapiens, UniProt O14727)
T1 sequence (O14727 whole entry): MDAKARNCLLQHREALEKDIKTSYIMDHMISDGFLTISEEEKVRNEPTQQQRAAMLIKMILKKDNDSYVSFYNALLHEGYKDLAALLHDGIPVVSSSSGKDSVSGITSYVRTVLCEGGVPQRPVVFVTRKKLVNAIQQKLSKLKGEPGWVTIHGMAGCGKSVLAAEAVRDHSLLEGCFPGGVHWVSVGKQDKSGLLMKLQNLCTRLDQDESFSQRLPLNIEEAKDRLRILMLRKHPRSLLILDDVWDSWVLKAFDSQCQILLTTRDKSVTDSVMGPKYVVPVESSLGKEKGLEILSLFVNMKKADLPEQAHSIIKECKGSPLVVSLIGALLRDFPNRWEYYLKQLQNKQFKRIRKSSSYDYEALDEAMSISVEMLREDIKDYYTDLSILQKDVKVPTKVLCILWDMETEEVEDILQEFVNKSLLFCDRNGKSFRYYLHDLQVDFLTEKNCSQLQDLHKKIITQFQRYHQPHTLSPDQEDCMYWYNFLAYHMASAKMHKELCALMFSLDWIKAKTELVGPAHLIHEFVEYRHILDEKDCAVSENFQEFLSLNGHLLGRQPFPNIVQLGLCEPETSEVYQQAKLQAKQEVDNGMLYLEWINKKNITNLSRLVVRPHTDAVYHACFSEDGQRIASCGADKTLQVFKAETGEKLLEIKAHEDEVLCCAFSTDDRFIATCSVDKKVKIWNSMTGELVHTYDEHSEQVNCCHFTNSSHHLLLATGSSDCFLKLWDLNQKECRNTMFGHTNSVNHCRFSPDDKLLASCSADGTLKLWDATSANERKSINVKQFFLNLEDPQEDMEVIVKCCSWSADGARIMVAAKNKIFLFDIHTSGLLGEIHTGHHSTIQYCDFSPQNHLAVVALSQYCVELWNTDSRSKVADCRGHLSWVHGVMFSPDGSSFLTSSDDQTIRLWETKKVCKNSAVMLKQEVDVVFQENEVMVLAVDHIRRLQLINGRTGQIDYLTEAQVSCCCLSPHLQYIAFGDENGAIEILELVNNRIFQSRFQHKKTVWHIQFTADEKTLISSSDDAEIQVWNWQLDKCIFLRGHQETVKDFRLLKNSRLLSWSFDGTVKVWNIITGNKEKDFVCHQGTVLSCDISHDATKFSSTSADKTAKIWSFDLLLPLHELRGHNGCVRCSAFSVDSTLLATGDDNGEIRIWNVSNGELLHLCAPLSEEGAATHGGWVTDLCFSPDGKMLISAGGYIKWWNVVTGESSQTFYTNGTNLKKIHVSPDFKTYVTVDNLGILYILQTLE

[4] = biological target: Non-receptor tyrosine-protein kinase TYK2 (Homo sapiens, UniProt P29597)
[5] = biological target: T2, Dual specificity tyrosine-phosphorylation-regulated kinase 3 (Homo sapiens, UniProt O43781);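 note: measured as one member of a broad kinase panel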
T2 sequence (O43781 whole entry): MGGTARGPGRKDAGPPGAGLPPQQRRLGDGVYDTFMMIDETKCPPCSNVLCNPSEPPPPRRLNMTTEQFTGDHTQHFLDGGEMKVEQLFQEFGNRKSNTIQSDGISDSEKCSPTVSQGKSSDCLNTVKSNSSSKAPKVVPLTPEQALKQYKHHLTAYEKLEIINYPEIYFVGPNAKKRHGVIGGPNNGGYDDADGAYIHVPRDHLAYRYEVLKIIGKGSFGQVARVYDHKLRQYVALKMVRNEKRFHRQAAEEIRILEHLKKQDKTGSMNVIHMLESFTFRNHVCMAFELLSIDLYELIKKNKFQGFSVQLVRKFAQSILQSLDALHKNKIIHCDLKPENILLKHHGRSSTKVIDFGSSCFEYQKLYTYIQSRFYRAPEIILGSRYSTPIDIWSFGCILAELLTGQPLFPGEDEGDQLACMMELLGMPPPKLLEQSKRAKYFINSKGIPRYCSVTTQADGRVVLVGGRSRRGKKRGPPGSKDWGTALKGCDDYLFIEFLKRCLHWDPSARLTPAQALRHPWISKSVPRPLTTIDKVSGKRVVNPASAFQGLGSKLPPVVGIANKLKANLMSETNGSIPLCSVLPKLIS

[6] = biological target: Mitogen-activated protein kinase kinase kinase kinase 5 (Homo sapiens, UniProt Q9Y4K4);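 note: measured as one member of a kinome-spanning kinase panel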
[7] = biological target: Ribosomal protein S6 kinase beta-1 (Homo sapiens, UniProt P23443);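 note: measured as one member of a kinome-wide profiling panel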
[8] = biological target: Receptor tyrosine-protein kinase erbB-2 (Homo sapiens, UniProt P04626); assay: Navigating the Kinome. Panel member name: ERBB2
[9] = biological target: Receptor tyrosine-protein kinase erbB-4 (Homo sapiens, UniProt Q15303);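 note: ERBB4 member of a kinome-wide kinase profiling panel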
[10] = biological target: Dual specificity protein kinase CLK4 (Homo sapiens, UniProt Q9HAZ1)
[11] = biological target: Casein kinase I isoform alpha (Homo sapiens, UniProt P48729)
[12] = biological target: Rho-associated protein kinase 1 (Homo sapiens, UniProt Q13464);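 note: measured within a broad kinome-wide panel profiling many kinases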
[13] = biological target: STE20-like serine/threonine-protein kinase (Homo sapiens, UniProt Q9H2G2)
[14] = biological target: T3, Lymphokine-activated killer T-cell-originated protein kinase (Homo sapiens, UniProt Q96KB5);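 note: value comes from a kinase panel screen in which TOPK was one of the panel members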
T3 sequence (Q96KB5 whole entry): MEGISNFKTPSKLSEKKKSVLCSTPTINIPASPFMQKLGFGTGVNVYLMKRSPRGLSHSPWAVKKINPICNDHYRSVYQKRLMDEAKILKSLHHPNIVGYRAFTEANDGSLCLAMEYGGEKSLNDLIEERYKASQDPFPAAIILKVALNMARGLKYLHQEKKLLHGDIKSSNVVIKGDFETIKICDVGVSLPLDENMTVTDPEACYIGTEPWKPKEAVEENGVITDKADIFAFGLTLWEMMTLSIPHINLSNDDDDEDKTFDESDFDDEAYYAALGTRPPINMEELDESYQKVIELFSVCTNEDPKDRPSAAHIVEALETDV

LIM domain kinase 1 = LIM domain kinase 1 (Homo sapiens, UniProt P53667); assay: Navigating the Kinome. Panel member name: LIMK1
[15] = biological target: Serine/threonine-protein kinase Nek4 (Homo sapiens, UniProt P51957)
[16] = biological target: Serine/threonine-protein kinase N2 (Homo sapiens, UniProt Q16513)
Chain of Serine/threonine-protein kinase N2 (Q16513 whole entry): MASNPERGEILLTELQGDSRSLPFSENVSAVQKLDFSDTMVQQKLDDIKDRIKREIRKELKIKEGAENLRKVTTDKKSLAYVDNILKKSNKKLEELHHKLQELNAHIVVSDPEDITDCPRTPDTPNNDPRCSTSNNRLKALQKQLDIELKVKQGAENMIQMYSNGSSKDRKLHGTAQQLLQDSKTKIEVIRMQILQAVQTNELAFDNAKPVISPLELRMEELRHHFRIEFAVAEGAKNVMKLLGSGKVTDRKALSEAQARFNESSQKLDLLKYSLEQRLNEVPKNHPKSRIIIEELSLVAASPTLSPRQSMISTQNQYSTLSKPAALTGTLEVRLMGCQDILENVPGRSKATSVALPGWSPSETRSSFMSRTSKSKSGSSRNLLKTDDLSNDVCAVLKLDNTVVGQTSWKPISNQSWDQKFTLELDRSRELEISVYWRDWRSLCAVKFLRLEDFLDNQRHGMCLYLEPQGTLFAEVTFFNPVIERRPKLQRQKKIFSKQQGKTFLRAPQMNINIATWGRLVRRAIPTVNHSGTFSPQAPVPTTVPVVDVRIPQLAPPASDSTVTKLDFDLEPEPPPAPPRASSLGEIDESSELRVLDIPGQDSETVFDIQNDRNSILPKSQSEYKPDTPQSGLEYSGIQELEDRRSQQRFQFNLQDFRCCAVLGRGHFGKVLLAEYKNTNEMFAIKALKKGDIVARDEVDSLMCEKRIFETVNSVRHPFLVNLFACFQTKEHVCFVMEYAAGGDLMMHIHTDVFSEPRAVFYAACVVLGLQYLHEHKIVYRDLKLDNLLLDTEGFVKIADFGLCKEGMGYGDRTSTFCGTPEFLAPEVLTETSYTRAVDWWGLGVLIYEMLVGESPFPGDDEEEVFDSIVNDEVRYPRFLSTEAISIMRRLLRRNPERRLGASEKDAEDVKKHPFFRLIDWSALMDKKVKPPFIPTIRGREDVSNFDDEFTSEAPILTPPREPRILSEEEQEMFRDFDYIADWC

Chain of Receptor tyrosine-protein kinase erbB-4 (Q15303 whole entry): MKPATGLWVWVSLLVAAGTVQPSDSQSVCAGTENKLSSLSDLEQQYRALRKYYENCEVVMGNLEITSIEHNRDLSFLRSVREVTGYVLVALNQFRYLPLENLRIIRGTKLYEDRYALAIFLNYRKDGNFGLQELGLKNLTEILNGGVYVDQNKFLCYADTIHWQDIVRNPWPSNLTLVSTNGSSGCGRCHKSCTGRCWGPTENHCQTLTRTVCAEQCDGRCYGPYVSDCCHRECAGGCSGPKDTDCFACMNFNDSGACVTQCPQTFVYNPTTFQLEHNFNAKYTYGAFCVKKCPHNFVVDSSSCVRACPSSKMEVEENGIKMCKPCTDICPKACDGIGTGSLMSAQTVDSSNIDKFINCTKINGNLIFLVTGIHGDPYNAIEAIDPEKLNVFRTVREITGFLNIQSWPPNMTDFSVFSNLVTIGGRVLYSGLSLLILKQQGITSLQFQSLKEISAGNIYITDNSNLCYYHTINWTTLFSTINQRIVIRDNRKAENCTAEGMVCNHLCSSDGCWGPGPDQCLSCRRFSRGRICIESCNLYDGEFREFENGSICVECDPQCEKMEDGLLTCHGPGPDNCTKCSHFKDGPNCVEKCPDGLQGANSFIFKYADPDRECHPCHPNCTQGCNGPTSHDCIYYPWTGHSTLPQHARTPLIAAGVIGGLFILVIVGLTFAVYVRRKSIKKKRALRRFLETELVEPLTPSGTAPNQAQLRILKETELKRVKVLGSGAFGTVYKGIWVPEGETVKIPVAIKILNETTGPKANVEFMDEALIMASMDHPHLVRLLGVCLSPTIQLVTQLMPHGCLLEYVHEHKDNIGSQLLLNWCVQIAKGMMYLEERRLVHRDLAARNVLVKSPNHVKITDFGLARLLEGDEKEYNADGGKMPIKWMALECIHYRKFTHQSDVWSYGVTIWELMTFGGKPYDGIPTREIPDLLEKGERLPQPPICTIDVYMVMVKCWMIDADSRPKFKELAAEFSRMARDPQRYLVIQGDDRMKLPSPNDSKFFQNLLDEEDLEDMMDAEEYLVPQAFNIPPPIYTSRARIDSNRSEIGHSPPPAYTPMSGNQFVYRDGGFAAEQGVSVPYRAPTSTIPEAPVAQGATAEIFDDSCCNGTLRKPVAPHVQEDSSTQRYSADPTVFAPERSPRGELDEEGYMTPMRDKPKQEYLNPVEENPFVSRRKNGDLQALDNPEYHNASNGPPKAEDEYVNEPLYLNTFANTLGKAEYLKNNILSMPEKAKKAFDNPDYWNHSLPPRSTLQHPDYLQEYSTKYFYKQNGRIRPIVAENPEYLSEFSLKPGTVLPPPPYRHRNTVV
Chain of Dual specificity protein kinase CLK4 (Q9HAZ1 whole entry, canonical isoform): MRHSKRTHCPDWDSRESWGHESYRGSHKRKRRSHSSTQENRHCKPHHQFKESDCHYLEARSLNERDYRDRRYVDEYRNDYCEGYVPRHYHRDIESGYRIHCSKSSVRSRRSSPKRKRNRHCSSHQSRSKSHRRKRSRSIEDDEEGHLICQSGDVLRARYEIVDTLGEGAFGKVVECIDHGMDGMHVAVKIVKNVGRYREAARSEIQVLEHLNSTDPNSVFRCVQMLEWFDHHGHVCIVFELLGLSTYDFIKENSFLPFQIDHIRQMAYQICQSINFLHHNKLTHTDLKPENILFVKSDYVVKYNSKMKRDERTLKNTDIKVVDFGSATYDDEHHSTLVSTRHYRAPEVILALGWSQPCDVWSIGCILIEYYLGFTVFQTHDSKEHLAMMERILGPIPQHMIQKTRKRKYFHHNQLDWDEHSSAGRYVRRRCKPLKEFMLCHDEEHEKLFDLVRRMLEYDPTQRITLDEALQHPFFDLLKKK
Chain of Casein kinase I isoform alpha (P48729 whole entry, canonical isoform): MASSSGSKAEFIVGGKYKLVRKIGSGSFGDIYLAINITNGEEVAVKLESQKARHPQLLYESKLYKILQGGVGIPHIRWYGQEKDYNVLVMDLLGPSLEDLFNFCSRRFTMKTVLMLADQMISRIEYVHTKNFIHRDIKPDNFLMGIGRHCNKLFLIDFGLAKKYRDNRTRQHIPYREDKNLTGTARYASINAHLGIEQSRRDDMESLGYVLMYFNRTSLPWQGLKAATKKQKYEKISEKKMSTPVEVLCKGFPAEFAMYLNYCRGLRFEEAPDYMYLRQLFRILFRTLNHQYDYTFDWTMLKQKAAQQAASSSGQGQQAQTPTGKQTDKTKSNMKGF
Chain of Serine/threonine-protein kinase Nek4 (P51957 whole entry): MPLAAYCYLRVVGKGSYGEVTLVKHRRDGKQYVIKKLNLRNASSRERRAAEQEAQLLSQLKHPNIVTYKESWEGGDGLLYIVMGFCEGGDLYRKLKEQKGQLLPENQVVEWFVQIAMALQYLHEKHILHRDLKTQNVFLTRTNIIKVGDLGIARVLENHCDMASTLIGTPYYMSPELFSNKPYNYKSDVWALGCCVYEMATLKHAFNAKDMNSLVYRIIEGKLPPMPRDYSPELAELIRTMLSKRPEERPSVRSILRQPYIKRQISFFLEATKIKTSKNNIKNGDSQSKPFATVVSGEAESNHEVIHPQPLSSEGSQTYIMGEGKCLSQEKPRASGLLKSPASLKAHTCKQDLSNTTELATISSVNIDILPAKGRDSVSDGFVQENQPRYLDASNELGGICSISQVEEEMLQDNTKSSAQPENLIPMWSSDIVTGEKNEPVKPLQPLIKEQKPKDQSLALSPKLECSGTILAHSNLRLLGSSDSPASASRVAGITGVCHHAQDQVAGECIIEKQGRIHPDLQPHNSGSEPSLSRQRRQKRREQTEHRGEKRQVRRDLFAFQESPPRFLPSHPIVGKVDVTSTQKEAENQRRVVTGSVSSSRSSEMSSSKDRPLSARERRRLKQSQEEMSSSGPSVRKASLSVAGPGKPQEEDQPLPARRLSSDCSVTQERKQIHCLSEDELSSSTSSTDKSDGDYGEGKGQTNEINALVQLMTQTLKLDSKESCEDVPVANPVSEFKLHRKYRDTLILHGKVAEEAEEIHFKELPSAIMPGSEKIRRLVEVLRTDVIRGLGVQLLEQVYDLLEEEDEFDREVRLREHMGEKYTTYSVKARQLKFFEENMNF
Chain of RNA-editing ligase 1, mitochondrial (P86926 whole entry): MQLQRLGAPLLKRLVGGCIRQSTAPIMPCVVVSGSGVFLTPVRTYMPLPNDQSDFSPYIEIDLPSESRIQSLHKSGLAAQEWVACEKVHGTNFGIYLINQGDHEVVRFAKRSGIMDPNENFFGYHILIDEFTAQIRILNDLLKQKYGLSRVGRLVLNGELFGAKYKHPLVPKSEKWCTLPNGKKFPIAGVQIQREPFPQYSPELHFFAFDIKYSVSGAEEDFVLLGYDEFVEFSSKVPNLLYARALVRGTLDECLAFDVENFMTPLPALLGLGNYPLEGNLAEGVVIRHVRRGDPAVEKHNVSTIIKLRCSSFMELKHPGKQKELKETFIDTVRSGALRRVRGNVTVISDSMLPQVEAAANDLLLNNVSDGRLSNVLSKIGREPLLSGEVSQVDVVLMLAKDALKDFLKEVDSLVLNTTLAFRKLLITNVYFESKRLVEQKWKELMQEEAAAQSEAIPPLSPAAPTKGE
Chain of Ribosomal protein S6 kinase beta-1 (P23443 whole entry): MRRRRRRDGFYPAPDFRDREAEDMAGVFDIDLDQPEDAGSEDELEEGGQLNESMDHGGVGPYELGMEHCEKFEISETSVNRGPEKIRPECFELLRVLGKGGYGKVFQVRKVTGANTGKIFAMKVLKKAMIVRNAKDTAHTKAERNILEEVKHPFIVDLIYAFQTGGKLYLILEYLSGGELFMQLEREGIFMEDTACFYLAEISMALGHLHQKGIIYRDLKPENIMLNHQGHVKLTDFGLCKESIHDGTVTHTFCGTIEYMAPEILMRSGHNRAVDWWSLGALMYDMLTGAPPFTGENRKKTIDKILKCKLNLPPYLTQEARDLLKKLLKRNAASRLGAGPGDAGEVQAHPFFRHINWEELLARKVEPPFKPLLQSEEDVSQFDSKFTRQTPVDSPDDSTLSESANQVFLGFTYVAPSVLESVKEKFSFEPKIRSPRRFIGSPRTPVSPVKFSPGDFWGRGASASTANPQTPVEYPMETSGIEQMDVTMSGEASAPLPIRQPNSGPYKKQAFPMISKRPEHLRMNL

Structure (SMILES): CCCc1nc2c(=O)n(C)c(=O)nc-2n(C)n1
- IC50 [1]: 0.494 µM (active)
- AC50 [2]: 4.6 µM (active)

- IC50 [3]: 28.7 µM (active)
Structure (SMILES): CC(=O)c1ccc(NC2=C(N3CCOCC3)C(=O)c3ccccc3C2=O)cc1

- Ki [4]: > 2 µM (inactive)
- Ki [5]: > 6.31 µM (inactive)
- Ki [6]: 0.2 µM (active)
- Ki [7]: > 6.31 µM (inactive)
- Ki [8]: 1 µM (active)
- Ki [9]: > 3.98 µM (inactive)
- Ki [10]: 0.398 µM (active)
- Ki [11]: > 6.31 µM (inactive)
- Ki [12]: > 10 µM (inactive)
- Ki [13]: 0.0126 µM (active)
- Ki (LIM domain kinase 1): 7.94 µM (active)
- Ki [15]: > 6.31 µM (inactive)
- Ki [16]: > 7.94 µM (inactive)
Structure (SMILES): COc1cc2ncn(-c3cc(OCc4ccccc4C(F)(F)F)c(C(N)=O)s3)c2cc1OC [GW843682X]
- Ki [14]: > 10 µM (inactive)
